Read-outs that look alike come from different tables or passages of the source.

Assay [1] deals with Hh signaling (Gli1 mRNA) in C3H10T1/2 cells. The experiment in a line: Down-regulation of endogenous Gli1 mRNA in Hh-dependent C3H10T1/2 cells. Type of assay: cell-based, mouse. Conditions: Mus musculus; for mrna remaining at 1 µM: read-out: % Gli expression (1 μM). As for the experimental part:
To determine whether the triazole functionality was required for inhibition of Hh signaling, the ability of Analogue 1 to down-regulate the well-characterized Hh pathway target gene Gli1 in the Hh-dependent C3H10T1/2 cell line was determined. In this cellular model, activation of the pathway with exogenous recombinant Hh ligand results in a characteristic up-regulation of Gli1 mRNA, while concomitant administration of a pathway inhibitor reduces Gli1 expression.
(§1) General Information. Protocols for general cell culture, qPCR and Hh inhibition in C3H10T1/2 and ASZ cells are as previously described.^28 Protocols for the initiation and growth of Math1-Cre-ER; Ptc^fl/fl medulloblastoma tumors, isolation and in vitro culture of MERP MB cells, as wells as the anti-proliferation and qPCR studies performed in these cells were as previously described.^a Sonic Hedgehog (C25II) recombinant mouse protein was purchased from Life Technologies. aData was analyzed using GraphPad Prism 5 and reported values represent mean±SEM for at least two separate experiments performed in triplicate.
(§2) In this well-studied model system for evaluating small molecule inhibition of Hh signaling, addition of an exogenous Hh agonist (recombinant Hh ligand or small molecule) results in a characteristic increase in Gli1 mRNA expression. Concomitant incubation with a pathway inhibitor reduces Gli1 expression. Analogues that reduced Gli1 mRNA levels below 20% in this assay were subsequently evaluated for their ability to reduce Gli1 mRNA expression levels in a concentration-dependent fashion in these cells and the Hh-dependent murine BCC cell line ASZ. In addition, several compounds were evaluated for their anti-proliferative effects in primary Hh-dependent medulloblastoma cells isolated from conditional patched knockout (Math1-Cre-ER; Ptc^fl/fl, MERP) mice. […] Finally, each of these analogues was evaluated for its ability to inhibit proliferation in human umbilical vein […] cells (HUVECs). In vivo angiogenesis is dependent on endothelial cell proliferation; therefore, the inhibition of HUVEC proliferation is commonly utilized as an early stage in vitro model of anti-angiogenic activity.

Assay [2] concerns Hh signaling (Gli1 mRNA) in ASZ cells. Kind of assay: Down-regulation of endogenous Gli1 mRNA in ASZ cells. As to conditions: Mus musculus. Type of assay: cell-based, murine. The procedure: as §1, §2
For another assay, the system named is HUVEC. The experiment in a line: HUVEC proliferation (MTS). It is filed as cell-based, human. As to conditions: Homo sapiens, HUVEC, 72 h. The source says: (§3) In vivo angiogenesis is dependent on endothelial cell proliferation; therefore, the inhibition of HUVEC proliferation is commonly utilized as an early stage in vitro model of anti-angiogenic activity. […] Under normal conditions, HUVECs plated and grown on Matrigel migrate towards each other, align, and form tubes that resemble in vivo capillary beds. This assay is generally considered a more robust model of angiogenesis as it requires several aspects of proper vessel formation, including adhesion, migration, and tube formation.
HUVEC Cell Viability and Proliferation. HUVEC cell viability and proliferation will be assessed by measuring cellular metabolic activity using MTT (viability) or MTS (proliferation) according to the manufacturer's instructions. HUVECs (3000 cells/well) are seeded in a 96-well plate and allowed to attach overnight. […] For viability, the final value is a corrected optical density (570 nm-690 nm). All viability and GI50 values are from a minimum of three separate experiments performed in triplicate.
HUVEC Cell Viability and Proliferation. HUVEC cell proliferation was assessed by measuring cellular metabolic activity using standard MTS/PMS protocols according to manufacturer's instructions. Briefly, HUVECs (3,000 cells/well) were seeded in a 96-well plate and allowed to attach overnight. Cells were treated with varying concentrations of drug as indicated and proliferation was assessed after 72 h with MTS.

A further assay relates to tube formation in HUVECs. Kind of assay: HUVEC tube formation on Matrigel. As to conditions: 10 μM; DMSO set as 100% tube formation. It is filed as cell-based, human.
Source text: as §3
Tube Formation Assay. Matrigel (BD Biosciences) is diluted with DMEM to 3 mg/ml and used to coat the wells of a 24-well tissue culture dish. Plates are incubated at room temperature for 30 min until the matrigel solidifies. HUVECs are suspended in M199 media with 1% FBS and penicillin/streptomycin and 40,000 cells are added to each well. Plates are incubated at 37° C. for 1 h to allow HUVECs to attach to the matrigel. […] Phase contrast images of each well (3/well) are taken on an inverted microscope and quantified using Image J software (NIH).
Tube Formation Assay. Matrigel (BD Biosciences) was diluted 1:1 with DMEM (matrigel protein concentration no less than 3 mg/ml) and used to coat the wells of a 24-well tissue culture dish (280 uL per well). Plates were incubated at 37° C. for no more than 1 h until the matrigel solidified. HUVECs were suspended in M199 media with 1% FBS and penicillin/streptomycin and 50,000 cells were added to each well. Plates were incubated at 37° C. for 20-30 min to allow HUVECs to attach to the matrigel. Cells were treated with control (DMSO), known angiogenic inhibitor suramin (10 uM), or varying doses (10, 1, 0.1 μM) of drug and incubated for 16 h. Phase contrast images were taken from multiple locations in each well (8/well) on an inverted microscope and tube formation parameters quantified using Image J software (NIH).

Where [3] appears, read: C3H 10T1/2, 24 h, read-out: IC50 (μM) C3H10T1/2, 24 hr incubation.
[4] abbreviates: 48 h, read-out: IC50 (μM) ASZ, 48 hr incubation.
Setting [5] is: read-out: GI50 (μM) HUVEC, 72 h.
The mark [6] stands for this setting: C3H 10T1/2, 24 hr incubation, read-out: IC50 (μM) C3H10T1/2.
[7] abbreviates: 48 hr incubation, read-out: IC50 (μM) ASZ.
The mark [8] stands for this setting: C3H 10T1/2, read-out: inactive in the C3H10T1/2 MEFs at concentrations up to.
Setting [9] is: read-out: IC50 down-regulation of Gli1 in ASZ cells.

For the molecule `CC[C@H](C)n1ncn(-c2ccc(N3CCN(c4ccc(OCC5COC(Cn6cncn6)(c6ccc(Cl)cc6Cl)O5)cc4)CC3)cc2)c1=O` (stereo partly drawn) [Compound 6a, 4-(4-(4-(4-((2-((1H-1,2,4-triazol-1-yl)methyl)-2-(2,4-dichlorophenyl)-1,3-dioxolan-4-yl)methoxy)phenyl)piperazin-1-yl)phenyl)-2-((S)-sec-butyl)-2,4-dihydro-3H-1,2,4-triazol-3-one], the mrna remaining at 1 µM in assay [1] (C3H 10T1/2, 24 h) is 6.9 ± 3.1%. Further, the IC50 in assay [1] (setting [3]) was determined as 0.16 ± 0.04 µM; in assay [2] (setting [4]), 0.14 ± 0.008 µM. Besides, the GI50 (usually the concentration giving 50% growth inhibition) in the assay on HUVEC (setting [5]) was determined as 2.5 ± 0.3 µM.

On to `CC[C@@H](C)n1ncn(-c2ccc(N3CCN(c4ccc(OCC5COC(Cn6cncn6)(c6ccc(Cl)cc6Cl)O5)cc4)CC3)cc2)c1=O` (stereo partly drawn) [Compound 7a, 4-(4-(4-(4-((2-((1H-1,2,4-triazol-1-yl)methyl)-2-(2,4-dichlorophenyl)-1,3-dioxolan-4-yl)methoxy)phenyl)piperazin-1-yl)phenyl)-2-((R)-sec-butyl)-2,4-dihydro-3H-1,2,4-triazol-3-one], for which the mrna remaining at 1 µM in assay [1] (C3H 10T1/2, 24 h) came to 3 ± 0.9%. Besides, the IC50 in assay [1] (setting [3]) is 0.14 ± 0.04 µM; in assay [2] (setting [4]), 0.16 ± 0.07 µM. Further, the GI50 with HUVEC (setting [5]) stood at 1.7 ± 0.4 µM.

Regarding `O=[N+]([O-])c1ccc(N2CCN(c3ccc(OCC4COC(Cn5cncn5)(c5ccc(Cl)cc5Cl)O4)cc3)CC2)cc1` (stereo not drawn) [Compound 10a, 1-(4-((2-((1H-1,2,4-triazol-1-yl)methyl)-2-(2,4-dichlorophenyl)-1,3-dioxolan-4-yl)methoxy)phenyl)-4-(4-nitrophenyl)piperazine], the mrna remaining at 1 µM in assay [1] (C3H 10T1/2, 24 h) came to 1.5 ± 0.05%. Besides, the IC50 in assay [1] (setting [3]) amounted to 0.13 ± 0.03 µM; in assay [2] (setting [4]) it was 0.09 ± 0.01 µM. Further, in the assay on HUVEC (setting [5]), the GI50 was found to be 8.4 ± 0.7 µM.

For the molecule `CC[C@H](C)n1ncn(-c2ccc(N3CCN(c4ccc(OC[C@H]5CO[C@](C)(c6ccc(Cl)cc6Cl)O5)cc4)CC3)cc2)c1=O` [Compound 14a, 2-((S)-sec-butyl)-4-(4-(4-(4-(((2S,4S)-2-(2,4-dichlorophenyl)-2-methyl-1,3-dioxolan-4-yl)methoxy)phenyl)piperazin-1-yl)phenyl)-2,4-dihydro-3H-1,2,4-triazol-3-one], the results for the IC50 in assay [1] (setting [6]) and in assay [2] (setting [7]) were 1.1 ± 0.17 µM and 2.5 ± 0.7 µM, respectively. In the assay with HUVEC (read-out: GI50 (μM) HUVEC), the GI50 was 7.7 ± 4.4 µM.

As for `CC[C@H](C)n1ncn(-c2ccc(N3CCN(c4ccc(OC[C@H]5CO[C@@](C)(c6ccc(Cl)cc6Cl)O5)cc4)CC3)cc2)c1=O` [Compound 15a, 2-((S)-sec-butyl)-4-(4-(4-(4-(((2R,4S)-2-(2,4-dichlorophenyl)-2-methyl-1,3-dioxolan-4-yl)methoxy)phenyl)piperazin-1-yl)phenyl)-2,4-dihydro-3H-1,2,4-triazol-3-one], the IC50 in assay [1] (setting [6]) is above 10 µM; in assay [1] (setting [8]), above 10 µM; in assay [2] (setting [7]) it was 0.55 ± 0.07 µM; in assay [2] (setting [9]) it was 0.55 µM. The GI50 in the assay on HUVEC (read-out: GI50 (μM) HUVEC) worked out at 78.3 ± 17.3 µM.

Consider `CC[C@H](C)n1ncn(-c2ccc(N3CCN(c4ccc(OC[C@@H]5CO[C@@](C)(c6ccc(Cl)cc6Cl)O5)cc4)CC3)cc2)c1=O` [Compound 16a, 2-((S)-sec-butyl)-4-(4-(4-(4-(((2R,4R)-2-(2,4-dichlorophenyl)-2-methyl-1,3-dioxolan-4-yl)methoxy)phenyl)piperazin-1-yl)phenyl)-2,4-dihydro-3H-1,2,4-triazol-3-one], for which the IC50 came out at 0.47 ± 0.001 µM in assay [1] (setting [6]) and 0.38 ± 0.07 µM in assay [2] (setting [7]). For the same molecule, the concentration for 50% growth inhibition (GI50) in the assay on HUVEC (read-out: GI50 (μM) HUVEC) is 18.3 ± 11.8 µM.

As to `CC[C@@H](C)n1ncn(-c2ccc(N3CCN(c4ccc(OC[C@H]5CO[C@@](C)(c6ccc(Cl)cc6Cl)O5)cc4)CC3)cc2)c1=O` [Compound 19a, 2-((R)-sec-butyl)-4-(4-(4-(4-(((2R,4S)-2-(2,4-dichlorophenyl)-2-methyl-1,3-dioxolan-4-yl)methoxy)phenyl)piperazin-1-yl)phenyl)-2,4-dihydro-3H-1,2,4-triazol-3-one], the IC50 in assay [1] (setting [6]) was determined as 6.6 ± 0.3 µM; in assay [2] (setting [7]), 2.8 ± 0.9 µM. In addition, the GI50 in the assay with HUVEC (read-out: GI50 (μM) HUVEC) turned out to be 65 ± 11.5 µM.

With `CCCn1ncn(-c2ccc(N3CCN(c4ccc(OC[C@@H]5CO[C@@](C)(c6ccc(Cl)cc6Cl)O5)cc4)CC3)cc2)c1=O` [Compound 22a, 4-(4-(4-(4-(((2R,4R)-2-(2,4-dichlorophenyl)-2-methyl-1,3-dioxolan-4-yl)methoxy)phenyl)piperazin-1-yl)phenyl)-2-propyl-2,4-dihydro-3H-1,2,4-triazol-3-one], the IC50 is 4.1 ± 1.5 µM in assay [1] (setting [6]) and 1.3 ± 0.65 µM in assay [2] (setting [7]). In addition, the GI50 with HUVEC (read-out: GI50 (μM) HUVEC) amounted to 26.5 ± 3.5 µM.

Take `CCCn1ncn(-c2ccc(N3CCN(c4ccc(OC[C@@H]5CO[C@](C)(c6ccc(Cl)cc6Cl)O5)cc4)CC3)cc2)c1=O` [Compound 23a, 4-(4-(4-(4-(((2S,4R)-2-(2,4-dichlorophenyl)-2-methyl-1,3-dioxolan-4-yl)methoxy)phenyl)piperazin-1-yl)phenyl)-2-propyl-2,4-dihydro-3H-1,2,4-triazol-3-one]: the values for the IC50 in assay [1] (setting [6]) and in assay [2] (setting [7]) were above 10 µM and 1.4 ± 0.5 µM, respectively. Also, the GI50 in the assay on HUVEC (read-out: GI50 (μM) HUVEC) is 49.9 ± 15.9 µM.

Take `CCCn1ncn(-c2ccc(N3CCN(c4ccc(OC[C@H]5CO[C@@](C)(c6ccc(Cl)cc6Cl)O5)cc4)CC3)cc2)c1=O` [Compound 25a, 4-(4-(4-(4-(((2R,4S)-2-(2,4-dichlorophenyl)-2-methyl-1,3-dioxolan-4-yl)methoxy)phenyl)piperazin-1-yl)phenyl)-2-propyl-2,4-dihydro-3H-1,2,4-triazol-3-one]: the IC50 in assay [1] (setting [6]) was above 10 µM; in assay [1] (setting [8]), above 10 µM; in assay [2] (setting [7]) it was 0.54 ± 0.06 µM; in assay [2] (setting [9]) it was 0.54 µM. For the same molecule, the GI50 in the assay on HUVEC (read-out: GI50 (μM) HUVEC) is 24.9 ± 2.2 µM.

Take `Cc1ccc(C(=O)Nc2ccc(S(=O)(=O)O)c3cc(S(=O)(=O)O)cc(S(=O)(=O)O)c23)cc1NC(=O)c1cccc(NC(=O)Nc2cccc(C(=O)Nc3cc(C(=O)Nc4ccc(S(=O)(=O)O)c5cc(S(=O)(=O)O)cc(S(=O)(=O)O)c45)ccc3C)c2)c1` [Suramin, reference compound]: in the assay with tube formation in HUVECs, the “ability to inhibit tube junctions” value was found to be 57.6±6.1% and the “ability to inhibit tube length” value is 51.9±7.8%.

Values taken from patent US9650365B2 (UNIVERSITY OF CONNECTICUT, priority 2014, dated 2017).
